Measurements: paper PMC6396489 (Cell Communication and Signaling : CCS, 2019)

Tests used:
Src [1] = test system: Src; set-up: method as in PMID 18722484; settings: cited from earlier work
Shp1 cSH2 domain = test system: T1, Shp1 cSH2 domain; assay: NMR 1H-15N HSQC titration of cSH2 domain; type: binding, human; settings: fast exchange regime, cSH2:GroPIns4P up to 1:5
T1 construct: The purified C-terminal SH2 domain (cSH2) was selected for these studies; made in house
Procedure: A suite of triple resonance experiments (Additional file 1 Table S1) was used for assignment of the ^1H, ^15N and ^13C backbone resonances of the Shp1 cSH2 domain. All experiments were acquired on a 700 MHz Bruker Avance instrument equipped with a TCI cryoprobe. Assignment of the cSH2 domain backbone resonances was complete with the exception of the resonances of S109 and G175. ^15N cSH2 (200 μM) was titrated with GroPIns4P, and a series of ^1H–^15N-HSQC spectra were recorded at different cSH2:GroPIns4P ratios up to a 1:5 ratio. […] The ^1HN and ^15N chemical shift perturbations were estimated by using the following equation [23]: Δδ=ΔHN^2+ΔN/5^2/2^1/2
Where ΔHN and ΔN are the differences between the ^1H and ^15N chemical shifts of free cSH2 and cSH2 in the presence of GroPIns4P, respectively.

Src [2] = assay: Western blotting of Src and PLCγ phosphorylation in NIH3T3 cells; type: cell-based
Procedure: (§1) NIH3T3 and Raw 264.7 cells were cultured in DMEM supplemented with 2 mM L-glutamine, 50 U/mL penicillin, […] streptomycin, and 10% CS or heat-inactivated FBS (30 min at 55 °C), respectively. NIH3T3 cells were transfected with different plasmids using the Lipofectamine LTX/plus reagent according to the manufacturer’s instructions. For immunofluorescence experiments, NIH3T3 cells were seeded onto glass coverslips in 24-well plates at a concentration suitable for 70% confluence without transfection or 50% confluence in the case of Lipofectamine-based cell transfection. In the latter, approximately 24 h after seeding, NIH3T3 cells were transiently transfected with different plasmids with the Lipofectamine LTX/plus reagent following the manufacturer’s instructions. Before treatments, NIH3T3 cells were serum-starved in DMEM with 2 mM glutamine, 50 U/mL penicillin and streptomycin for 16–20 h. The cells were then treated with different stimuli and/or inhibitors, as indicated in the text and/or Figure legends. Addition of exogenous GroPIns4P was at 50 μM (unless otherwise indicated), a concentration eliciting an intracellular concentration of about 1.5 μM, as calculated from the Nernst equation (with T = 300 K, z = − 3, and Veq = − 30 mV, an average value for cultured, non-excitable cells).
NIH3T3 cells were washed with ice-cold PBS and lysed on ice in buffer containing 20 mM Tris-HCl, pH 8.0, 150 mM NaCl, 1% Triton-X100, 5 mM Na3VO4, 30 mM β-glycerophosphate and 10 mM NaF supplemented with the protease inhibitor cocktail and processed for SDS-PAGE. Westen blotting was performed with the relevant antibodies. For immunoprecipitation experiments, 2 μg of an anti-Shp1 antibody or 5 μg of an anti-Src antibody were added to 1 mg of NIH3T3 cell lysates at 4 °C and incubated overnight. The samples were then incubated with A or G protein agarose beads for 1 h at 4 °C. Western blotting was performed from the washed and denatured complexes.

[3] = biological target: T2, Shp1 S118A/R138E/S140A mutant (Homo sapiens, UniProt P29350, R136E/S116A/S138A); assay: Isothermal titration calorimetry, Shp1 S118A/R138E/S140A mutant; type: binding; settings: very small heat effect, value not with sufficient confidence
T2 construct: a tailless-form of Shp1 (residues 1–529) has previously been used [25] and it is used also in this study; 6xHis (N); made in house; host or cells: E. coli BL21(DE3)
T2 sequence (P29350 1-529 isoform P29350-3 S118A/R138E/S140A): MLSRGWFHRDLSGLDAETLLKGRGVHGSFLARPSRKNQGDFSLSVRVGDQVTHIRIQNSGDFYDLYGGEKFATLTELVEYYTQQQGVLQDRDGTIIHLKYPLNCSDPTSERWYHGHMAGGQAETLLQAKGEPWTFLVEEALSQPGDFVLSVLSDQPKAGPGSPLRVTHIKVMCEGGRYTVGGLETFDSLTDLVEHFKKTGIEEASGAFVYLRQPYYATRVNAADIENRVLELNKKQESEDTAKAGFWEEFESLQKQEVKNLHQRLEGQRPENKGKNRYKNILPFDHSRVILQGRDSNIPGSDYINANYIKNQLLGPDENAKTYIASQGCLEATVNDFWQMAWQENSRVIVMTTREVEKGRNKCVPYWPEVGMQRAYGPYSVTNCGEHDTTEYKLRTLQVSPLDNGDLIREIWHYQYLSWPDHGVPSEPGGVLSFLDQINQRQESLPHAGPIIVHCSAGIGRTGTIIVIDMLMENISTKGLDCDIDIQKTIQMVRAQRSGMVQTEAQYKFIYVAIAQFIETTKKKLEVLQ
Procedure: ITC measurements were performed by using a Nano-ITC III (TA instruments, New Castle, DE, USA) with a reaction cell volume of 1 ml kept at 25 °C. A protein solution of 10 μM was titrated into the calorimetric cell with a solution of 50–100 μM of the ligand GroPIns4P (Ins4P) in the syringe. A sequence of 16 injections of 15 μL volume was programmed with a stirring speed of 250 rpm at 500 s intervals. Protein samples were prepared with protein solutions at 25 °C in 20 mM Tris buffer pH 7.4 with 50 mM NaCl and 1 mM TCEP. To minimise the differences in buffer composition and pH between cell and syringe, both ligand and protein solutions were prepared with the same batch of buffer. The heat of dilution of the GroPIns4P into the buffer solution was measured in a separate experiment and appropriate corrections were made. The heat evolved after each ligand injection was obtained from the integral of the calorimetric signal. Raw data were integrated, corrected for non-specific heats and normalized for concentration. The equilibrium dissociation constant (KD), binding enthalpy (ΔbH) and binding stoichiometry (n) were obtained by nonlinear regression of the experimental data using a model of independent binding sites, by means of the NanoAnalyze software. Experiments were performed in duplicate.

NIH3T3 cells = assay: Immunofluorescence analysis for membrane ruffling; type: cell-based
Procedure: as §1
For ruffle assessment after treatments, immunofluorescence labelling and morphological analysis of the cells were performed as previously described in a double-blind fashion. In brief, the assessment was based on a null score (zero) for the absence of the feature, followed by a score of one or two according to the level of response of each individual cell, where one indicate that ruffling was confined to one area of the cell (< 25% of the cell circumference), and two indicate that two or more discrete areas of the cell contained ruffles. The cell phenotypes were quantified by counting 150 cells in each sample. The data were then expressed as percentage scores (±SD) for each treatment response compared with its respective control. Scoring of the control cells was performed in the same way to evaluate the presence of the features of interest in untreated cells.

[4] = NIH3T3 overexpressing Shp1-C455S, 50 μM

Compound: O=P(O)(O)OC1C(O)C(O)C(OP(=O)(O)OCC(O)CO)C(O)C1O (stereo not drawn) [GroPIns4P, glycerophosphoinositol 4-phosphate]
- direct interaction with Src (Src [1]): no direct interaction
- exchange rate between bound and free cSH2 (Shp1 cSH2 domain): higher than 2 × 10^3 s^-1
- phosphorylation of PLCγ on Tyr783 (Src [2]; NIH3T3, 50 μM): induced an increase in phosphorylation
- Src activating Tyr418 phosphorylation (Src [2]; NIH3T3, 50 μM for 2 to 5 min): increased
- Src inhibitory Tyr530 phosphorylation (Src [2]; NIH3T3, 50 μM for 2 to 5 min): markedly decreased
- Src Tyr418 or PLCγ tyrosine phosphorylation (Src [2]; [4]): no increase
- Src dephosphorylation (pTyr530) (Src [2]; [4]): failed to induce Src dephosphorylation
- KD relative to Shp1 WT [3]: about one order of magnitude higher
- increase in peripheral ruffles versus the control (NIH3T3 cells; 50 μM GroPIns4P for 5 min): 2.5–3 fold
- effect on ruffle formation (NIH3T3 cells; cells expressing Shp1 S118A/R138E/S140A, 50 μM GroPIns4P): significantly inhibited
- membrane ruffle formation (NIH3T3 cells; cells over-expressing Shp1-C455S, 50 μM GroPIns4P): did not lead to membrane ruffle formation
- actin ruffle formation (NIH3T3 cells; cells over-expressing Shp1 S12A/R32E/S34A, 50 μM GroPIns4P): resulted in the induction of actin ruffles
